Assay results reported in the supplement of paper PMC10307832.

What was measured:
Assay in all cases: relative viability (nuclei count vs DMSO), 5 days (fraction); higher = more cells survive
[1] = compound: CC1=C(C=CC(=C1)[N+](=O)[O-])NS(=O)(=O)C2=C(C=CC(=C2)Cl)Cl [FH535] + CS(=O)(=O)CCNCc1ccc(-c2ccc3ncnc(Nc4ccc(OCc5cccc(F)c5)c(Cl)c4)c3c2)o1 [Lapatinib] (partner 2 µM)
Outline: (§1)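 Relative viability was taken as the ratio of nuclei in treated wells to nuclei in vehicle wells. Lung cancer cell lines in 1536-well plates received compounds by pin tool one day after seeding, either one drug alone or a fixed anchor-drug dose plus five library-drug doses (not always all listed) in √10 steps. Nuclei were counted on 4× images after 5 days of treatment, and values are medians of duplicate plates.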

[2] = compound: CC1=C(C=CC(=C1)[N+](=O)[O-])NS(=O)(=O)C2=C(C=CC(=C2)Cl)Cl [FH535] + NC(=O)Nc1cc(-c2cccc(F)c2)sc1C(=O)N[C@H]1CCCNC1 [AZD7762] (partner 0.2 µM)
Outline: as §1

[3] = compound: CC1=C(C=CC(=C1)[N+](=O)[O-])NS(=O)(=O)C2=C(C=CC(=C2)Cl)Cl [FH535] + Cc1nc(Nc2ncc(C(=O)Nc3c(C)cccc3Cl)s2)cc(N2CCN(CCO)CC2)n1 [Dasatinib] (partner 0.075 µM)
Outline: as §1

[4] = compound: CC1=C(C=CC(=C1)[N+](=O)[O-])NS(=O)(=O)C2=C(C=CC(=C2)Cl)Cl [FH535] + Cc1nc(NC(=O)N2CCC[C@H]2C(N)=O)sc1-c1ccnc(C(C)(C)C(F)(F)F)c1 [Alpelisib] (partner 2 µM)
Outline: as §1

[5] = compound: CC1=C(C=CC(=C1)[N+](=O)[O-])NS(=O)(=O)C2=C(C=CC(=C2)Cl)Cl [FH535] + N=C(N)NC(=N)NCCc1ccccc1 [Phenformin] (partner 250 µM)
Outline: as §1

| Cell Line | relative viability ([1]; first compound 0.04 µM) | relative viability ([1]; first compound 0.1265 µM) | relative viability ([1]; first compound 0.4 µM) | relative viability ([1]; first compound 1.265 µM) | relative viability ([2]; first compound 0.04 µM) | relative viability ([2]; first compound 0.1265 µM) | relative viability ([2]; first compound 0.4 µM) | relative viability ([2]; first compound 1.265 µM) | relative viability ([3]; first compound 0.04 µM) | relative viability ([3]; first compound 0.1265 µM) | relative viability ([3]; first compound 0.4 µM) | relative viability ([3]; first compound 1.265 µM) | relative viability ([4]; first compound 0.04 µM) | relative viability ([4]; first compound 0.1265 µM) | relative viability ([4]; first compound 0.4 µM) | relative viability ([4]; first compound 1.265 µM) | relative viability ([5]; first compound 0.04 µM) | relative viability ([5]; first compound 0.1265 µM) | relative viability ([5]; first compound 0.4 µM) | relative viability ([5]; first compound 1.265 µM) |
| --- | --- | --- | --- | --- | --- | --- | --- | --- | --- | --- | --- | --- | --- | --- | --- | --- | --- | --- | --- | --- |
| EKVX | 0.179 | 0.221 | 0.227 | 0.187 | 0.77 | 0.661 | 0.631 | 0.559 | 0.336 | 0.705 | 0.511 | 0.243 | 0.825 | 0.976 | 0.823 | 0.75 | 0.238 | 0.223 | 0.173 | 0.153 |
| EMC-BAC-2 | 0.788 | 0.926 | 0.894 | 0.813 | 0.828 | 1.06 | 1.04 | 0.985 | 0.302 | 0.358 | 0.317 | 0.319 | 0.731 | 0.762 | 0.716 | 0.632 | 0.416 | 0.554 | 0.46 | 0.359 |
| EPLC-272H | 0.677 | 1.1 | 0.827 | 0.831 | 0.241 | 0.226 | 0.259 | 0.206 | 0.283 | 0.318 | 0.311 | 0.281 | 0.951 | 0.978 | 1.02 | 0.963 | 0.242 | 0.352 | 0.234 | 0.159 |
| H3255 | 0.214 | 0.252 | 0.266 | 0.199 | 0.806 | 0.918 | 0.853 | 0.788 | 0.341 | 0.473 | 0.408 | 0.346 | 0.468 | 0.805 | 0.705 | 0.633 | 0.31 | 0.423 | 0.374 | 0.32 |
| HARA | 0.743 | 0.802 | 0.8 | 0.73 | 0.19 | 0.426 | 0.305 | 0.358 | 0.358 | 0.194 | 0.205 | 0.182 | 0.785 | 0.817 | 0.817 | 0.561 | 0.398 | 0.368 | 0.269 | 0.205 |
| HCC-15 | 0.825 | 0.679 | 0.733 | 0.534 | 1.18 | 1.21 | 1.06 | 1.13 | 0.552 | 0.632 | 0.505 | 0.49 | 0.864 | 0.819 | 0.85 | 0.646 | 0.432 | 0.443 | 0.343 | 0.213 |
| HCC-44 | 1.06 | 1.03 | 0.977 | 0.773 | 1 | 0.961 | 0.898 | 0.866 | – | – | – | – | 0.779 | 0.843 | 0.741 | 0.566 | 0.242 | 0.191 | 0.125 | 0.176 |
| HCC-78 | 0.694 | 0.321 | 0.701 | 0.697 | 0.644 | 0.888 | 0.618 | 0.468 | 0.33 | 0.514 | 0.342 | 0.427 | 0.345 | 0.396 | 0.361 | 0.302 | 0.626 | 0.783 | 0.63 | 0.592 |
